Source: ChEMBL document CHEMBL4725353, “Discovery of Pyrido[2,3-b]indole Derivatives with Gram-Negative Activity Targeting Both DNA Gyrase and Topoisomerase IV” (J Med Chem, 2020)
In brackets after ≈: the same amount, converted by molar mass. Activity calls are given as the source filed them. The rule behind the calls is not given here.

Columns and labels:
physchem [1] = conditions: PBS, pH 6.5
Description: Solubility of compound in PBS at pH 6.5 incubated for over night by HPLC-UV based lyophilization solubility assay

[2] = Intrinsic clearance in mouse hepatocytes by LC/MS-MS analysis; type: ADME, cell-based, Hepatocyte
[3] = Clearance in iv dosed CD-1 mouse measured up to 24 hrs by LC-MS/MS analysis; type: ADME, organism-based; conditions: in vivo
[4] = Plasma protein binding in iv dosed CD-1 mouse measured up to 24 hrs by LC-MS/MS analysis; type: ADME, organism-based; conditions: read-out: PPB (converted)
Klebsiella pneumoniae [5] = test: Antibacterial activity against Klebsiella pneumoniae ATCC 10031 assessed as reduction in microbial growth preincubated for 20 to 24 hrs followed by subculture in absence of compound and measured on day 4 CLSI based broth microdilution susceptibility method; type: functional; conditions: time hrs 20-24
[6] = Protein binding in plasma (unknown origin) assessed as unbound fraction at 1 uM after 5 hrs by LC/MS-MS analysis; type: ADME, cell-free
in vitro = conditions: mouse, liver microsomes
Description: Intrinsic clearance in mouse liver microsomes preincubated for 10 mins followed by NADPH regenerating system addition and measured up to 30 mins by LC/MS-MS analysis

[7] = Half life in iv dosed CD-1 mouse measured up to 24 hrs by LC-MS/MS analysis; type: ADME, organism-based; conditions: in vivo
[8] = AUC/dose in iv dosed CD-1 mouse measured up to 24 hrs by LC-MS/MS analysis; type: ADME, organism-based; conditions: in vivo
Acinetobacter baumannii [9] = test: Antibacterial activity against Acinetobacter baumannii ATCC 51432 assessed as reduction in microbial growth preincubated for 20 to 24 hrs followed by subculture in absence of compound and measured on day 4 CLSI based broth microdilution susceptibility method; type: functional; conditions: time hrs 20-24
Escherichia coli [10] = test: microbe, parasite or virus in culture; conditions: ATCC 25922
Description: Antibacterial activity against Escherichia coli ATCC 25922 assessed as reduction in microbial growth preincubated for 20 to 24 hrs followed by subculture in absence of compound and measured on day 4 CLSI based broth microdilution susceptibility method

Pseudomonas aeruginosa [11] = test: Antibacterial activity against Pseudomonas aeruginosa PAO1 assessed as reduction in microbial growth preincubated for 20 to 24 hrs followed by subculture in absence of compound and measured on day 4 CLSI based broth microdilution susceptibility method; type: functional; conditions: time hrs 20-24
Klebsiella pneumoniae [12] = test: Antibacterial activity against Klebsiella pneumoniae ATCC BAA-2146 assessed as reduction in microbial growth preincubated for 20 to 24 hrs followed by subculture in absence of compound and measured on day 4 CLSI based broth microdilution susceptibility method; type: functional; conditions: time hrs 20-24
Acinetobacter baumannii [13] = test: Antibacterial activity against Acinetobacter baumannii ATCC BAA-747 assessed as reduction in microbial growth preincubated for 20 to 24 hrs followed by subculture in absence of compound and measured on day 4 CLSI based broth microdilution susceptibility method; type: functional; conditions: time hrs 20-24
[14] = Cmax/dose in iv dosed CD-1 mouse measured up to 24 hrs by LC-MS/MS analysis; type: ADME, organism-based; conditions: in vivo
Klebsiella pneumoniae [15] = test: Antibacterial activity against Klebsiella pneumoniae ATCC 700603 assessed as reduction in microbial growth preincubated for 20 to 24 hrs followed by subculture in absence of compound and measured on day 4 CLSI based broth microdilution susceptibility method; type: functional; conditions: time hrs 20-24
Acinetobacter baumannii [16] = test: Antibacterial activity against Acinetobacter baumannii ATCC 19606 assessed as reduction in microbial growth preincubated for 20 to 24 hrs followed by subculture in absence of compound and measured on day 4 CLSI based broth microdilution susceptibility method; type: functional; conditions: time hrs 20-24
Pseudomonas aeruginosa [17] = test: Antibacterial activity against Pseudomonas aeruginosa ATCC BAA-2113 assessed as reduction in microbial growth preincubated for 20 to 24 hrs followed by subculture in absence of compound and measured on day 4 CLSI based broth microdilution susceptibility method; type: functional; conditions: time hrs 20-24
[18] = Volume of distribution at steady state in iv dosed CD-1 mouse measured up to 24 hrs by LC-MS/MS analysis; type: ADME, organism-based; conditions: in vivo, read-out: Vdss
Escherichia coli [19] = test: Antibacterial activity against Escherichia coli ATCC BAA-2340 assessed as reduction in microbial growth preincubated for 20 to 24 hrs followed by subculture in absence of compound and measured on day 4 CLSI based broth microdilution susceptibility method; type: functional; conditions: time hrs 20-24
Escherichia coli [20] = test: Antibacterial activity against Escherichia coli ATCC 35218 assessed as reduction in microbial growth preincubated for 20 to 24 hrs followed by subculture in absence of compound and measured on day 4 CLSI based broth microdilution susceptibility method; type: functional; conditions: time hrs 20-24
physchem [21] = test: physchem
Description: Ionization constant (acid), pKa of the compound by photometric titration assay

Escherichia coli [22] = test: microbe, parasite or virus in culture; conditions: ATCC 29213
Description: Antibacterial activity against Escherichia coli ATCC 29213 assessed as reduction in microbial growth preincubated for 20 to 24 hrs followed by subculture in absence of compound and measured on day 4 CLSI based broth microdilution susceptibility method

[23] = Distribution coefficient between octanol and buffer, log D of the compound in pH 7.4 buffer by CAMDIS assay; type: physicochemical
[24] = Dissociation constant, pKa of compound by photometric titration assay; type: physicochemical
Pseudomonas aeruginosa [25] = test: Antibacterial activity against Pseudomonas aeruginosa ATCC 27853 assessed as reduction in microbial growth preincubated for 20 to 24 hrs followed by subculture in absence of compound and measured on day 4 CLSI based broth microdilution susceptibility method; type: functional; conditions: time hrs 20-24
Escherichia coli [26] = test: Antibacterial activity against Escherichia coli ATCC 25922 infected in ICR mouse model of neutropenic thigh infection assessed as reduction in colony forming unit at 45 mg/kg, iv bid for 12 hrs; type: functional, organism-based
Escherichia coli [27] = test: Antibacterial activity against Escherichia coli ATCC 25922 infected in ICR mouse model of neutropenic thigh infection assessed as reduction in microbial growth at 10 to 25 mg/kg, iv and measured after 12 hrs; type: functional, organism-based; conditions: dose mg/kg 10-25, time 12.0 hrs
[28] = Ratio of fAUC in Escherichia coli ATCC 25922 infected ICR mouse model of neutropenic thigh infection to MIC for Escherichia coli ATCC […]; type: ADME; conditions: 45 mg/kg, 12 h
[29] = fAUC in Escherichia coli ATCC 25922 infected ICR mouse model of neutropenic thigh infection; type: ADME; conditions: 45 mg/kg, 12 h
Escherichia coli [30] = test: Antibacterial activity against Escherichia coli ATCC 25922 infected in ICR mouse model of neutropenic thigh infection assessed as reduction in microbial growth at 40 to 45 mg/kg, iv bid for 12 hrs; type: functional, organism-based

CCNc1cc(F)cc2c1[nH]c1ncc(-c3cncc(C#N)c3)c(-n3cc(CN)c(C(F)(F)F)n3)c12
solubility (physchem [1]): 90 µg/mL (≈ 182 µM) | CLH [2]: 48.6 µg/mL | clearance [3]: 50 mL/min/kg | fraction unbound at 24 h [4]: 0.11 | MIC (Klebsiella pneumoniae [5]): < 0.03 µg/mL | fraction unbound at 5 h, 1 µM [6]: 0.012 | CLint scaled at 0.5 h (in vitro): 47 mL/min/kg | half-life [7]: 1.8 h | AUC/dose [8]: 324 kg·ng·h/mL/mg | MIC (Acinetobacter baumannii [9]): 1 µg/mL | MIC (Escherichia coli [10]): < 0.25 µg/mL | MIC (Pseudomonas aeruginosa [11]): 2 µg/mL | MIC (Klebsiella pneumoniae [12]): 8 µg/mL | MIC (Acinetobacter baumannii [13]): 0.5 µg/mL | Cmax/dose [14]: 305 kg·ng/mL/mg | MIC (Klebsiella pneumoniae [15]): 4 µg/mL | MIC (Acinetobacter baumannii [16]): 1 µg/mL | MIC (Pseudomonas aeruginosa [17]): 2 µg/mL | Vd [18]: 5.8 L/kg | MIC (Escherichia coli [19]): 2 µg/mL | MIC (Escherichia coli [20]): 1 µg/mL | pKa (physchem [21]): 8.08

CCNc1cc(F)cc2c1[nH]c1ncc(-c3cncc(CC(=O)O)c3)c(-n3ccc(C(F)(F)F)n3)c12
MIC (Escherichia coli [22]): 0.25 µg/mL (≈ 0.502 µM) | MIC (Escherichia coli [10]): > 8 µg/mL | logD [23]: 2.02 | pKa [24]: 3.51

CCNc1cc(F)cc2c1[nH]c1ncc(-c3cncc(Cc4nnn[nH]4)c3)c(-n3ccc(C(F)(F)F)n3)c12
MIC (Escherichia coli [22]): 0.444 µg/mL (≈ 0.85 µM) | MIC (Escherichia coli [10]): > 11.4 µg/mL | logD [23]: 1.93 | pKa [24]: 4.78

CCNc1cc(F)cc2c1[nH]c1ncc(-c3cnc(OC)nc3)c(-n3nc(C(F)(F)F)c4c3CNC4)c12
solubility (physchem [1]): 4 µg/mL (≈ 7.81 µM) | fraction unbound at 5 h, 1 µM [6]: 0.016 | CLint scaled at 0.5 h (in vitro): 77.4 mL/min/kg | MIC (Escherichia coli [10]): 1 µg/mL (≈ 1.95 µM)

CCNc1cc(F)cc2c1[nH]c1ncc(-c3cncc(C(=O)O)c3)c(-n3ccc(C(F)(F)F)n3)c12
MIC (Escherichia coli [22]): 1 µg/mL (≈ 2.06 µM) | MIC (Escherichia coli [10]): > 16 µg/mL | logD [23]: 1.9 | pKa [24]: 3.57

CCNc1cc(F)cc2c1[nH]c1ncc(-c3cnc(OC)nc3)c(-n3ncc4c3CNC4)c12
solubility (physchem [1]): 350 µg/mL (≈ 787 µM) | CLH [2]: 53.9 µg/mL | clearance [3]: 51 mL/min/kg | fraction unbound at 24 h [4]: 0.11 | MIC (Klebsiella pneumoniae [5]): 0.09 µg/mL | fraction unbound at 5 h, 1 µM [6]: 0.11 | CLint scaled at 0.5 h (in vitro): 21.8 mL/min/kg | half-life [7]: 0.8 h | AUC/dose [8]: 327 kg·ng·h/mL/mg | MIC (Acinetobacter baumannii [9]): 5.56 µg/mL | MIC (Escherichia coli [10]): 0.81 µg/mL (≈ 1.82 µM) | MIC (Pseudomonas aeruginosa [11]): 10 µg/mL | MIC (Klebsiella pneumoniae [12]): 22.2 µg/mL | MIC (Acinetobacter baumannii [13]): 2.78 µg/mL | Cmax/dose [14]: 792 kg·ng/mL/mg | MIC (Klebsiella pneumoniae [15]): 22.2 µg/mL | MIC (Acinetobacter baumannii [16]): 5.56 µg/mL | MIC (Pseudomonas aeruginosa [25]): 11.1 µg/mL | MIC (Pseudomonas aeruginosa [17]): 11.1 µg/mL | Vd [18]: 1.6 L/kg | MIC (Escherichia coli [19]): 2.78 µg/mL | MIC (Escherichia coli [20]): 5.56 µg/mL

CCNc1cc(F)cc2c1[nH]c1ncc(-c3cnc(OC)nc3)c(-n3cc(CN)c(C(F)(F)F)n3)c12
solubility (physchem [1]): 15 µg/mL (≈ 30 µM) | CLH [2]: 45.3 µg/mL | clearance [3]: 48 mL/min/kg | Activity (Escherichia coli [26]): Active | fraction unbound at 24 h [4]: 0.11 | Activity (Escherichia coli [27]): Active | MIC (Klebsiella pneumoniae [5]): < 0.02 µg/mL | fraction unbound at 5 h, 1 µM [6]: 0.027 | CLint scaled at 0.5 h (in vitro): < 20.2 mL/min/kg | half-life [7]: 1.6 h | fAUC/MIC [28]: >= 6 | AUC/dose [8]: 341 kg·ng·h/mL/mg | MIC (Acinetobacter baumannii [9]): 0.78 µg/mL | MIC (Escherichia coli [10]): 0.31 µg/mL (≈ 0.619 µM) | MIC (Pseudomonas aeruginosa [11]): 1.3 µg/mL | MIC (Klebsiella pneumoniae [12]): 12.5 µg/mL | MIC (Acinetobacter baumannii [13]): 0.39 µg/mL | Cmax/dose [14]: 494 kg·ng/mL/mg | MIC (Klebsiella pneumoniae [15]): 6.26 µg/mL | fAUC [29]: 30000 ng·h/mL | Activity (Escherichia coli [30]): Active | MIC (Acinetobacter baumannii [16]): 0.78 µg/mL | MIC (Pseudomonas aeruginosa [25]): 1.56 µg/mL | MIC (Pseudomonas aeruginosa [17]): 1.56 µg/mL | Vd [18]: 3.6 L/kg | MIC (Escherichia coli [19]): 12.5 µg/mL | MIC (Escherichia coli [20]): 3.13 µg/mL

CCNc1cc(F)cc2c1[nH]c1ncc(-c3cncc(C#N)c3)c(-n3nc(C(F)(F)F)c4c3CNC4)c12
solubility (physchem [1]): < 0.3 µg/mL | fraction unbound at 5 h, 1 µM [6]: 0.012 | CLint scaled at 0.5 h (in vitro): 73.2 mL/min/kg | MIC (Escherichia coli [10]): 1 µg/mL (≈ 1.97 µM) | pKa (physchem [21]): 6.57

CCNc1cc(F)cc2c1[nH]c1ncc(-c3cncc(C#N)c3)c(-n3ncc4c3CNC4)c12
solubility (physchem [1]): 34 µg/mL (≈ 77.5 µM) | CLH [2]: 74.6 µg/mL | fraction unbound at 5 h, 1 µM [6]: 0.044 | CLint scaled at 0.5 h (in vitro): 70.3 mL/min/kg | MIC (Escherichia coli [10]): 2 µg/mL (≈ 4.56 µM) | pKa (physchem [21]): 7.62
